In patent publication US10894784B2, “Heteroarylbenzimidazole compounds” (BAYER PHARMA AKTIENGESELLSCHAFT, priority 2015, dated 2021) one finds IC50 data, which are given here for 27 molecules.

pIC50: −log10 of the molar value.

The target in this experiment is TBK1 (Homo sapiens (Human), UniProt Q9UHD2). Description: TBK1 low ATP kinase assay (in vitro assay 1). Type of experiment: biochemical. The note with it: in vitro assay 1, read-out: TBK1 low ATP kinase assay IC50.
Sequence of TBK1 (Q9UHD2 whole entry): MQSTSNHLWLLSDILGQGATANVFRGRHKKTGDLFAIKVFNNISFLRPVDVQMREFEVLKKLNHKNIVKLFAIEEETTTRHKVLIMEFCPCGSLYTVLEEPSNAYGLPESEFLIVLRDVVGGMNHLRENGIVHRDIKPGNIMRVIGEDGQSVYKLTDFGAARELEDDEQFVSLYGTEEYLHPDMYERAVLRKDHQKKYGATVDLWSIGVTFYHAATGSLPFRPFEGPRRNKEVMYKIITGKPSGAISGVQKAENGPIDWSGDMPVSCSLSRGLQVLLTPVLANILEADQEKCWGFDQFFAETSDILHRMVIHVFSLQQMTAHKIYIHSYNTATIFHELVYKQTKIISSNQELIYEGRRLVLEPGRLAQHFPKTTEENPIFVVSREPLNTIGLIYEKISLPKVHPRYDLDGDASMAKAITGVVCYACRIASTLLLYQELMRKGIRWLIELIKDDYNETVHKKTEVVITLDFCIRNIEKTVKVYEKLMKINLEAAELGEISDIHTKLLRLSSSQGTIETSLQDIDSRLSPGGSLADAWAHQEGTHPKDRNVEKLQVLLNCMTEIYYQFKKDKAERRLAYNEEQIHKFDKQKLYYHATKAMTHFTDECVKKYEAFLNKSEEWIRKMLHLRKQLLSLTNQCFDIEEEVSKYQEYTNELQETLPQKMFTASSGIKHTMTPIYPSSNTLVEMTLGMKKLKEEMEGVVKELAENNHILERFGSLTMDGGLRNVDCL
Usually pIC50 stands for −log10 of the IC50, conventionally taken in molar units. With `O=C(CC(F)(F)F)N1CCN(Cc2ccnc(Nc3nc4ccc(-c5cnc(Cl)nc5)cc4[nH]3)c2)CC1` [Example 45.02.01, 1-{4-[(2-{[6-(2-chloropyrimidin-5-yl)-1H-benzimidazol-2-yl]amino}pyridin-4-yl)methyl]piperazin-1-yl}-3,3,3-trifluoropropan-1-one], the pIC50 was 6.91.
Turning to `CCOc1nccc(-c2ccc3nc(Nc4cc(CN5CCN(C(=O)OC(C)(C)C)CC5)ccn4)[nH]c3c2)n1` [Example 26.01.01, tert-butyl 4-[(2-{[6-(2-ethoxypyrimidin-4-yl)-1H-benzimidazol-2-yl]amino}pyridin-4-yl)methyl]piperazine-1-carboxylate], the pIC50 is 7.45.
Take `CC(c1ccnc(Nc2nc3ccc(-c4cc(Cl)ncn4)cc3[nH]2)c1)N1CCN(C(=O)OC(C)(C)C)CC1` (single isomer, unassigned) [Example 85.01, tert-Butyl 4-[(1R or 1S)-1-(2-{[6-(6-chloropyrimidin-4-yl)-1H-benzimidazol-2-yl]amino}pyridin-4-yl)ethyl]piperazine-1-carboxylate]: the pIC50 was 8.24.
As for `COc1cnnc(-c2ccc3nc(Nc4cc(CN5CCN(C(=O)C6CC6)CC5)ccn4)[nH]c3c2)c1` [Example 47.02, cyclopropyl{4-[(2-{[6-(5-methoxypyridazin-3-yl)-1H-benzimidazol-2-yl]amino}pyridin-4-yl)methyl]piperazin-1-yl}methanone], the pIC50 was 6.30.
For `COc1c(-c2ccc3nc(Nc4cc(CN5CCN(C(=O)C6CC6)CC5)ccn4)[nH]c3c2)ncnc1N(C)CC1CC1` [Example 110.02, cyclopropyl[4-({2-[(6-{6-[(cyclopropylmethyl)(methyl)amino]-5-methoxypyrimidin-4-yl}-1H-benzimidazol-2-yl)amino]pyridin-4-yl}methyl)piperazin-1-yl]methanone], the pIC50 is 7.52.
Turning to `CC(C)Oc1cncnc1-c1ccc2nc(Nc3cc(C(C)N4CCN(C(=O)C5CC5)CC4)ccn3)[nH]c2c1` (single isomer, unassigned) [Example 36.03, cyclopropyl(4-{(1R or 1S)-1-[2-({6-[5-(propan-2-yloxy)pyrimidin-4-yl]-1H-benzimidazol-2-yl}amino)pyridin-4-yl]ethyl}piperazin-1-yl)methanone], the pIC50 is 8.67.
In the case of `COc1cnccc1-c1ccc2nc(Nc3cc(CN4CCN(C(=O)C5CC5)CC4)ccn3)[nH]c2c1` [Example 04.03, cyclopropyl{4-[(2-{[6-(3-methoxypyridin-4-yl)-1H-benzimidazol-2-yl]amino}pyridin-4-yl)methyl]piperazin-1-yl}methanone], the pIC50 is 7.71.
Next, `Cc1noc(-c2ccc3nc(Nc4cc(CN5CCN(C(N)=O)CC5)ccn4)[nH]c3c2)n1` [Example 101.20, 4-[(2-{[6-(3-methyl-1,2,4-oxadiazol-5-yl)-1H-benzimidazol-2-yl]amino}pyridin-4-yl)methyl]piperazine-1-carboxamide]: 6.25.
For the molecule `COc1c(-c2ccc3nc(Nc4cc(CN5CCN(C(=O)CC(F)(F)F)CC5)ccn4)[nH]c3c2)ncnc1N(C)C` [Example 107.01.03, 1-(4-{[2-({6-[6-(dimethylamino)-5-methoxypyrimidin-4-yl]-1H-benzimidazol-2-yl}amino)pyridin-4-yl]methyl}piperazin-1-yl)-3,3,3-trifluoropropan-1-one], the pIC50 is 7.89.
In the case of `CN(C)c1ncnc(-c2ccc3nc(Nc4cc(CN5CCN(C(=O)C6CC6)CC5)ccn4)[nH]c3c2)c1Cl` [Example 179.03, (4-{[2-({6-[5-chloro-6-(dimethylamino)pyrimidin-4-yl]-1H-benzimidazol-2-yl}amino)pyridin-4-yl]methyl}piperazin-1-yl)(cyclopropyl)methanone], the pIC50 was 5.90.
For the molecule `CC(c1ccnc(Nc2nc3ccc(-c4cnn(CC5CC5(F)F)c4)c(F)c3[nH]2)c1)N1CCN(C(=O)CC(F)(F)F)CC1` (single isomer, unassigned) [Example 86.02, 1-{4-[(1R or 1S)-1-(2-{[6-(1-{[(1RS)-2,2-difluorocyclopropyl]methyl}-1H-pyrazol-4-yl)-7-fluoro-1H-benzimidazol-2-yl]amino}pyridin-4-yl)ethyl]piperazin-1-yl}-3,3,3-trifluoropropan-1-one], the pIC50 is 8.68.
On to `Cn1cc(-c2ccc3nc(Nc4cc(CN5CCN(C(=O)C6CCC6)CC5)ccn4)[nH]c3c2)cn1` [Example 37.04, cyclobutyl{4-[(2-{[6-(1-methyl-1H-pyrazol-4-yl)-1H-benzimidazol-2-yl]amino}pyridin-4-yl)methyl]piperazin-1-yl}methanone], for which the pIC50 was 7.13.
`CC(c1ccnc(Nc2nc3ccc(-c4cnn(CC5CC5)c4)c(Cl)c3[nH]2)c1)N1CCN(C(=O)CC(F)(F)F)CC1` (single isomer, unassigned) [Example 122.02, 1-(4-{(1R or 1S)-1-[2-({7-chloro-6-[1-(cyclopropylmethyl)-1H-pyrazol-4-yl]-1H-benzimidazol-2-yl}amino)pyridin-4-yl]ethyl}piperazin-1-yl)-3,3,3-trifluoropropan-1-one]: the pIC50 is 8.92.
In the case of `CC(=O)c1cc(-c2ccc3nc(Nc4cc(CN5CCN(C(=O)CC(F)(F)F)CC5)ccn4)[nH]c3c2)ncn1` [Example 97.03, 1-{4-[(2-{[6-(6-acetylpyrimidin-4-yl)-1H-benzimidazol-2-yl]amino}pyridin-4-yl)methyl]piperazin-1-yl}-3,3,3-trifluoropropan-1-one], the pIC50 was 7.54.
For `CN(CC1CC1)c1cc(-c2ccc3nc(Nc4cc(CN5CCN(C(=O)C6CC6)CC5)ccn4)[nH]c3c2)ncn1` [Example 141.03, cyclopropyl[4-({2-[(6-{6-[(cyclopropylmethyl)(methyl)amino]pyrimidin-4-yl}-1H-benzimidazol-2-yl)amino]pyridin-4-yl}methyl)piperazin-1-yl]methanone], the pIC50 was 7.89.
As for `CNc1cc(-c2ccc3nc(Nc4cc(CN5CCN(C(=O)CC(F)(F)F)CC5)ccn4)[nH]c3c2)ncn1` [Example 150.02, 3,3,3-trifluoro-1-(4-{[2-({6-[6-(methylamino)pyrimidin-4-yl]-1H-benzimidazol-2-yl}amino)pyridin-4-yl]methyl}piperazin-1-yl)propan-1-one], the figure is 8.02; as for `COc1c(NCC2CC2)ncnc1-c1ccc2nc(Nc3cc(CN4CCN(C(=O)C5CC5)CC4)ccn3)[nH]c2c1` [Example 109.01.03, cyclopropyl[4-({2-[(6-{6-[(cyclopropylmethyl)amino]-5-methoxypyrimidin-4-yl}-1H-benzimidazol-2-yl)amino]pyridin-4-yl}methyl)piperazin-1-yl]methanone], 8.06.
Regarding `Clc1ccccc1N1CCN(Cc2ccnc(Nc3nc4ccc(-c5nc(C6CC6)no5)cc4[nH]3)c2)CC1` [Example 17.07, N-(4-{[4-(2-chlorophenyl)piperazin-1-yl]methyl}pyridin-2-yl)-6-(3-cyclopropyl-1,2,4-oxadiazol-5-yl)-1H-benzimidazol-2-amine], the pIC50 is 6.99.
For `O=C(CC(F)(F)F)N1CCN(Cc2ccnc(Nc3nc4ccc(-c5ccnc(F)c5)cc4[nH]3)c2)CC1` [Example 137.02, 3,3,3-trifluoro-1-{4-[(2-{[6-(2-fluoropyridin-4-yl)-1H-benzimidazol-2-yl]amino}pyridin-4-yl)methyl]piperazin-1-yl}propan-1-one], the pIC50 was 8.24.
Turning to `O=C(C1CC1)N1CCN(Cc2ccnc(Nc3nc4ccc(-c5nc(C6CCCC6)no5)cc4[nH]3)c2)CC1` [Example 19.01, {4-[(2-{[6-(3-cyclopentyl-1,2,4-oxadiazol-5-yl)-1H-benzimidazol-2-yl]amino}pyridin-4-yl)methyl]piperazin-1-yl}(cyclopropyl)methanone], the pIC50 was 6.38.
As for `CCOc1cc(-c2ccc3nc(Nc4cc(CN5CCN(C(=O)CC(F)(F)F)CC5)ccn4)[nH]c3c2)ncn1` [Example 161.02, 1-{4-[(2-{[6-(6-ethoxypyrimidin-4-yl)-1H-benzimidazol-2-yl]amino}pyridin-4-yl)methyl]piperazin-1-yl}-3,3,3-trifluoropropan-1-one], the figure is 8.11.
Take `Cn1cc(-c2ccc3nc(Nc4cc(CN5CCN(C(=O)C6CC6)CC5)ccn4)[nH]c3c2)cn1` [Example 37.03, cyclopropyl{4-[(2-{[6-(1-methyl-1H-pyrazol-4-yl)-1H-benzimidazol-2-yl]amino}pyridin-4-yl)methyl]piperazin-1-yl}methanone]: the pIC50 is 7.28.
In the case of `COc1cc(-c2ccc3nc(Nc4cc(CN5CCN(C(=O)CC(F)(F)F)CC5)ccn4)[nH]c3c2)ncn1` [Example 163.02, 3,3,3-trifluoro-1-{4-[(2-{[6-(6-methoxypyrimidin-4-yl)-1H-benzimidazol-2-yl]amino}pyridin-4-yl)methyl]piperazin-1-yl}propan-1-one], the pIC50 is 7.72.
For `COc1cnccc1-c1ccc2nc(Nc3cc(CN4CCN(C(=O)CC(F)(F)F)CC4)ccn3)[nH]c2c1OCC(C)C` [Example 50.01, 3,3,3-trifluoro-1-{4-[(2-{[6-(3-methoxypyridin-4-yl)-7-(2-methylpropoxy)-1H-benzimidazol-2-yl]amino}pyridin-4-yl)methyl]piperazin-1-yl}propan-1-one], the pIC50 was 6.30.
On to `COc1cncnc1-c1ccc2nc(Nc3cc(C(C)N4CCN(C(=O)C5CC5)CC4)ccn3)[nH]c2c1` (single isomer, unassigned) [Example 35.03.03.A, cyclopropyl{4-[(1R or 1S)-1-(2-{[6-(5-methoxypyrimidin-4-yl)-1H-benzimidazol-2-yl]amino}pyridin-4-yl)ethyl]piperazin-1-yl}methanone], for which the pIC50 is 8.25.
Consider `Cc1noc(-c2ccc3nc(Nc4cc(CN5CCN(C(=O)c6cccnc6)CC5)ccn4)[nH]c3c2)n1` [Example 101.26, {4-[(2-{[6-(3-methyl-1,2,4-oxadiazol-5-yl)-1H-benzimidazol-2-yl]amino}pyridin-4-yl)methyl]piperazin-1-yl}(pyridin-3-yl)methanone], for which the pIC50 is 6.51.
As for `O=C(C1CCC1)N1CCN(Cc2ccnc(Nc3nc4ccc(-c5ccnc(OCC6CC6)n5)cc4[nH]3)c2)CC1` [Example 62.01.02, cyclobutyl(4-{[2-({6-[2-(cyclopropylmethoxy)pyrimidin-4-yl]-1H-benzimidazol-2-yl}amino)pyridin-4-yl]methyl}piperazin-1-yl)methanone], the figure is 8.02.
